Measurements reported in patent publication US20230398130A1, “METHODS AND COMPOSITIONS FOR DIFFERENTIATING STEM CELLS” (Massachusetts Institute of Technology, priority 2020, published 2023).

Key:
ISC-enriched organoids [1] = test: Primary screen, 384-well 2.5-D organoid differentiation (ENR+CD, 6 days, Target Selective Inhibitor Library, vs whole-plate median): ATP (CellTiter-Glo 3D, CTG); details: primary screen; for Dose.FC.CTG: FC vs plate median; for SSMD.CTG: strictly standardized mean difference
ISC-enriched organoids [2] = test: Primary screen, 384-well 2.5-D organoid differentiation (ENR+CD, 6 days): carbachol-induced lysozyme secretion (LYZ.S); assay type: cell-based, murine; details: primary screen; for Dose.FC.LYZ.S: FC vs plate median; for Z.LYZ.S: standard z score; for SSMD.LYZ.S: strictly standardized mean difference
Description: (§1) High-throughput screening.

ISC-enriched organoids [3] = test: Primary screen, 384-well 2.5-D organoid differentiation (ENR+CD, 6 days): basal lysozyme secretion (LYZ.NS); assay type: cell-based, murine; details: primary screen; for Dose.FC.LYZ.NS: FC vs plate median; for SSMD.LYZ.NS: strictly standardized mean difference
Description: as §1

[4] = Dose 10.00 uM, standard z score
[5] = 1st of the 4 dose lines of the treatment (dose not given)
[6] = 2nd of the 4 dose lines of the treatment (dose not given)
[7] = 3rd of the 4 dose lines of the treatment (dose not given)
[8] = 4th of the 4 dose lines of the treatment (dose not given)
[9] = dose 0.08 uM, standard z score of FC
[10] = dose 0.40 uM, standard z score of FC
[11] = dose 2.00 uM, standard z score of FC
[12] = dose 10.00 uM, standard z score of FC

Work on `CC(C)(C)Cn1c(N)nc2ccc(-c3[nH]c(C(C)(C)C)nc3-c3ccc(F)cc3)nc21` [LY2228820] yielded a Dose.FC.CTG (ISC-enriched organoids [1]; Dose 0.08 uM) of −0.299 log 2 fold change, a Z.CTG (ISC-enriched organoids [1]; Dose 0.08 uM, standard z score) of −0.715 and a Dose.FC.CTG (ISC-enriched organoids [1]; Dose 0.40 uM) of −0.340 log 2 fold change. The Z.CTG (ISC-enriched organoids [1]; Dose 0.40 uM, standard z score) was −0.812, the Dose.FC.CTG (ISC-enriched organoids [1]; Dose 2.00 uM) was −0.339 log 2 fold change and the Z.CTG (ISC-enriched organoids [1]; Dose 2.00 uM, standard z score) was −0.810. The Dose.FC.CTG (ISC-enriched organoids [1]; Dose 10.00 uM) was −0.332 log 2 fold change, the Z.CTG (ISC-enriched organoids [1]; [4]) was −0.793 and the SSMD.CTG (ISC-enriched organoids [1]; [5]) was −0.908. It also gave an SSMD.CTG (ISC-enriched organoids [1]; [6]) of −0.614, an SSMD.CTG (ISC-enriched organoids [1]; [7]) of −0.794 and an SSMD.CTG (ISC-enriched organoids [1]; [8]) of −0.937. The Dose.FC.LYZ.S (ISC-enriched organoids [2]; Dose 0.08 uM) was −0.017 log 2 fold change, the Dose.FC.LYZ.S (ISC-enriched organoids [2]; Dose 0.40 uM) was −0.054 log 2 fold change and the Dose.FC.LYZ.S (ISC-enriched organoids [2]; Dose 2.00 uM) was −0.130 log 2 fold change. The Dose.FC.LYZ.S (ISC-enriched organoids [2]; Dose 10.00 uM) was −0.164 log 2 fold change, the Z.LYZ.S (ISC-enriched organoids [2]; [5]) was −0.107 and the Z.LYZ.S (ISC-enriched organoids [2]; [6]) was −0.348. It also gave a Z.LYZ.S (ISC-enriched organoids [2]; [7]) of −0.844, a Z.LYZ.S (ISC-enriched organoids [2]; [8]) of −1.062 and an SSMD.LYZ.S (ISC-enriched organoids [2]; [5]) of −0.087. For the same molecule, the SSMD.LYZ.S (ISC-enriched organoids [2]; [6]) was −0.344, the SSMD.LYZ.S (ISC-enriched organoids [2]; [7]) was −0.692 and the SSMD.LYZ.S (ISC-enriched organoids [2]; [8]) was −1.268. For the same molecule, the Dose.FC.LYZ.NS (ISC-enriched organoids [3]; Dose 0.08 uM) was 0.065 log 2 fold change, the Z.LYZ.NS (ISC-enriched organoids [3]; Dose 0.08 uM, standard z score) was 0.569 and the Dose.FC.LYZ.NS (ISC-enriched organoids [3]; Dose 0.40 uM) was −0.100 log 2 fold change. It also gave a Z.LYZ.NS (ISC-enriched organoids [3]; Dose 0.40 uM, standard z score) of −0.874, a Dose.FC.LYZ.NS (ISC-enriched organoids [3]; Dose 2.00 uM) of 0.043 log 2 fold change and a Z.LYZ.NS (ISC-enriched organoids [3]; Dose 2.00 uM, standard z score) of 0.377. For the same molecule, the Dose.FC.LYZ.NS (ISC-enriched organoids [3]; Dose 10.00 uM) was −0.126 log 2 fold change, the Z.LYZ.NS (ISC-enriched organoids [3]; [4]) was −1.099 and the SSMD.LYZ.NS (ISC-enriched organoids [3]; [5]) was 0.186. The SSMD.LYZ.NS (ISC-enriched organoids [3]; [6]) was −0.798, the SSMD.LYZ.NS (ISC-enriched organoids [3]; [7]) was 0.123 and the SSMD.LYZ.NS (ISC-enriched organoids [3]; [8]) was −1.170.

For `COc1cc(F)c(C(C)C)cc1-c1ccc(C(F)(F)F)cc1CN1C(=O)O[C@H](c2cc(C(F)(F)F)cc(C(F)(F)F)c2)[C@@H]1C` [Anacetrapib (MK-0859)], the Dose.FC.CTG (ISC-enriched organoids [1]; dose 0.08 uM, ENR+CD 6 days) was −0.090 log 2 fold change, the Z.CTG (ISC-enriched organoids [1]; [9]) was −0.214 and the Dose.FC.CTG (ISC-enriched organoids [1]; dose 0.40 uM, ENR+CD 6 days) was 0.035 log 2 fold change. It also gave a Z.CTG (ISC-enriched organoids [1]; [10]) of 0.084, a Dose.FC.CTG (ISC-enriched organoids [1]; dose 2.00 uM, ENR+CD 6 days) of −0.094 log 2 fold change and a Z.CTG (ISC-enriched organoids [1]; [11]) of −0.225. For the same molecule, the Dose.FC.CTG (ISC-enriched organoids [1]; dose 10.00 uM, ENR+CD 6 days) was 0.031 log 2 fold change, the Z.CTG (ISC-enriched organoids [1]; [12]) was 0.075 and the Dose.FC.LYZ.S (ISC-enriched organoids [2]; dose 0.08 uM, ENR+CD 6 days) was 0.051 log 2 fold change. The Dose.FC.LYZ.S (ISC-enriched organoids [2]; dose 0.40 uM, ENR+CD 6 days) was −0.002 log 2 fold change, the Dose.FC.LYZ.S (ISC-enriched organoids [2]; dose 2.00 uM, ENR+CD 6 days) was −0.046 log 2 fold change and the Dose.FC.LYZ.S (ISC-enriched organoids [2]; dose 10.00 uM, ENR+CD 6 days) was −0.036 log 2 fold change. For the same molecule, the Dose.FC.LYZ.NS (ISC-enriched organoids [3]; dose 0.08 uM, ENR+CD 6 days) was 0.013 log 2 fold change, the Z.LYZ.NS (ISC-enriched organoids [3]; [9]) was 0.112 and the Dose.FC.LYZ.NS (ISC-enriched organoids [3]; dose 0.40 uM, ENR+CD 6 days) was 0.007 log 2 fold change. The Z.LYZ.NS (ISC-enriched organoids [3]; [10]) was 0.060, the Dose.FC.LYZ.NS (ISC-enriched organoids [3]; dose 2.00 uM, ENR+CD 6 days) was −0.015 log 2 fold change and the Z.LYZ.NS (ISC-enriched organoids [3]; [11]) was −0.129. It also gave a Dose.FC.LYZ.NS (ISC-enriched organoids [3]; dose 10.00 uM, ENR+CD 6 days) of −0.036 log 2 fold change and a Z.LYZ.NS (ISC-enriched organoids [3]; [12]) of −0.314.

`Cl.Cl.O=S(=O)(NCCNC/C=C/c1ccc(Br)cc1)c1cccc2cnccc12` [H 89 2HCl] was tested, and the Dose.FC.CTG (ISC-enriched organoids [1]; Dose 0.08 uM) was 0.350 log 2 fold change, the Z.CTG (ISC-enriched organoids [1]; Dose 0.08 uM, standard z score) was 0.836 and the Dose.FC.CTG (ISC-enriched organoids [1]; Dose 0.40 uM) was 0.398 log 2 fold change. For the same molecule, the Z.CTG (ISC-enriched organoids [1]; Dose 0.40 uM, standard z score) was 0.950, the Dose.FC.CTG (ISC-enriched organoids [1]; Dose 2.00 uM) was 0.421 log 2 fold change and the Z.CTG (ISC-enriched organoids [1]; Dose 2.00 uM, standard z score) was 1.005. For the same molecule, the Dose.FC.CTG (ISC-enriched organoids [1]; Dose 10.00 uM) was 0.385 log 2 fold change, the Z.CTG (ISC-enriched organoids [1]; [4]) was 0.919 and the SSMD.CTG (ISC-enriched organoids [1]; [5]) was 1.039. The SSMD.CTG (ISC-enriched organoids [1]; [6]) was 0.952, the SSMD.CTG (ISC-enriched organoids [1]; [7]) was 0.830 and the SSMD.CTG (ISC-enriched organoids [1]; [8]) was 1.211. It also gave a Dose.FC.LYZ.S (ISC-enriched organoids [2]; Dose 0.08 uM) of 0.118 log 2 fold change, a Dose.FC.LYZ.S (ISC-enriched organoids [2]; Dose 0.40 uM) of 0.148 log 2 fold change and a Dose.FC.LYZ.S (ISC-enriched organoids [2]; Dose 2.00 uM) of 0.087 log 2 fold change. The Dose.FC.LYZ.S (ISC-enriched organoids [2]; Dose 10.00 uM) was 0.000 log 2 fold change, the Z.LYZ.S (ISC-enriched organoids [2]; [5]) was 0.764 and the Z.LYZ.S (ISC-enriched organoids [2]; [6]) was 0.955. For the same molecule, the Z.LYZ.S (ISC-enriched organoids [2]; [7]) was 0.565, the Z.LYZ.S (ISC-enriched organoids [2]; [8]) was −0.001 and the SSMD.LYZ.S (ISC-enriched organoids [2]; [5]) was 0.529. The SSMD.LYZ.S (ISC-enriched organoids [2]; [6]) was 0.703, the SSMD.LYZ.S (ISC-enriched organoids [2]; [7]) was 0.329 and the SSMD.LYZ.S (ISC-enriched organoids [2]; [8]) was −0.001. It also gave a Dose.FC.LYZ.NS (ISC-enriched organoids [3]; Dose 0.08 uM) of 0.140 log 2 fold change, a Z.LYZ.NS (ISC-enriched organoids [3]; Dose 0.08 uM, standard z score) of 1.223 and a Dose.FC.LYZ.NS (ISC-enriched organoids [3]; Dose 0.40 uM) of 0.080 log 2 fold change. The Z.LYZ.NS (ISC-enriched organoids [3]; Dose 0.40 uM, standard z score) was 0.695, the Dose.FC.LYZ.NS (ISC-enriched organoids [3]; Dose 2.00 uM) was 0.086 log 2 fold change and the Z.LYZ.NS (ISC-enriched organoids [3]; Dose 2.00 uM, standard z score) was 0.747. It also gave a Dose.FC.LYZ.NS (ISC-enriched organoids [3]; Dose 10.00 uM) of 0.132 log 2 fold change, a Z.LYZ.NS (ISC-enriched organoids [3]; [4]) of 1.151 and an SSMD.LYZ.NS (ISC-enriched organoids [3]; [5]) of 0.995. It also gave an SSMD.LYZ.NS (ISC-enriched organoids [3]; [6]) of 0.816, an SSMD.LYZ.NS (ISC-enriched organoids [3]; [7]) of 0.521 and an SSMD.LYZ.NS (ISC-enriched organoids [3]; [8]) of 0.374.
